Test results: US20140072654A1, “CANCER WITH METABOLIC THERAPY AND HYPERBARIC OXYGEN” (priority 2011, published 2014)
Where “and” joins values, the source holds several entries; their conditions need not be identical. Equal entries are not always repeated. Entries after “also recorded” stand apart in the source; their conditions may differ.

Assays:
VM-M3/Fluc tumors = experiment: Tumor bioluminescence in VM-M3/Fluc mice; format: in vivo, mouse; conditions: for tumor growth / bioluminescence: VM-M3 mice vs controls; for whole body tumor bioluminescence (ROI), representative animal: day 21 after tumor cell inoculation
[1] = rats; for decrease of blood pH compared to control after about 30 minutes / decrease of blood pH compared to control after about one hour: control pH ~7.5, mean
[2] = Blood glucose, blood βHB and body weight of VM-M3 survival study mice
[3] = Acute ketosis with supplementation in healthy VM/Dk mice (blood glucose, blood βHB, urine AcAc after feeding); format: in vivo, mouse; conditions: for time after feeding to significant βHB elevation: after 8 hour fast; for ketone bodies elevated, βHB and AcAc: blood βHB and urine AcAc; for time for which blood glucose was significantly lowered: standard chow with ketone supplementation after 8 hour fast
Experimental: FIG. 34(A)-(C) are graphs showing effect of ketone supplementation on blood glucose, blood βHB, urine AcAc, and body weight in mice. (A-C) blood glucose; (B) blood levels of ketones; and (C) urine AcAc of healthy VM/Dk mice 0-12 hours after feeding following 8 hour fast. […] Error bars represent ±SEM.

[4] = system: rats exposed to hyperbaric oxygen (5 ATA O2); experiment: CNS oxygen toxicity: latency to seizure (EEG) in rats in hyperbaric oxygen; format: in vivo, rat; conditions: for effect on latency to seizure / CNS-OT (words) / increase in latency to seizure (LS) compared to control: rats; for effect on latency to seizure / CNS-OT (words): 5 ATA O2, ~3 ml (~10 g/kg) gavage 30 min before HBO2; for increase in latency to seizure (LS) compared to control: 5 ATA O2, ~10 g/kg intragastric 30 min before dive, control water
Excerpt: Hyperbaric Chamber HBO2 system consisted of two main elements: 1) a plexiglass chamber (˜3 liter capacity, Diamond Box, Buxco, Electronics Inc., model PLY3114), that housed the rat during the experiment, and 2) a hyperbaric chamber (Reimers System Inc.—7.8 ATA MWP), that contained the plexiglass chamber and functioned as the pressure vessel. Both chambers were connected to an air compressor (oil-less rotary scroll compressor—model DK6086, Powerex).
During each experiment (hyperbaric hyperoxia), both the main chamber and the animal chamber were filled with air (dive profile). Rats were placed into the plexiglass chamber and allowed ten minutes to acclimate, at which time the plexiglass chamber was flushed with 100% 02. The animal was then allowed 15 minutes to acclimate before both chambers were compressed to 5 ATA (58.8 PSIG) at a rate of 0.7 ATA/min. The outer chamber was pressurized using air (capacity ˜205 liters) to minimize the risk of an electrical-induced fire. Each experiment was visually monitored via a live camera. LS was calculated from the moment at which the internal and the external chambers reached 5 ATA until the onset of convulsions, identified as high-amplitude, high frequency spikes lasting 10 to 30 sec, followed by polyspikes and wave formation concurrent with tonic-clonic motions of forelimbs and head. After the onset of seizures, the plexiglass chamber was flushed with air to quickly terminate seizure, and both chambers decompressed to sea level. Decompression rate was 1 ATA/min. Rats were then allowed a 15 min recovery period in air at 1 ATA before being removed from the chamber.
The radiotelemetry system consisted of an implantable 4ET radio-transmitter able to amplify and broadcast signals via a receiver (DSI PhysioTel, model RPC-2) connected to an acquisition interface unit (ACQ 7700 Ponemah) via electrical penetrations in the wall of the hyperbaric chamber. The acquisition interface unit was connected to a computer for real time data collection and storage. The same acquisition unit also recorded chamber pressure and temperature, which were measured, respectively, by […] directly connected to the acquisition system via BNC (Bayonet Neill-Concelman) cables.
Anticonvulsant effect of supplemental ketones was tested in rats exposed to hyperbaric oxygen (5 ATA O2). The effects of ketone esters (KEs) in preventing CNS-OT in rats were assessed before, during and after HBO2 exposure by measuring various parameters.
Adult male Sprague-Dawley rats (n=60) rats (300-450 grams; 3 to 6 month old) were obtained from Harlan, anesthetized in 3-5% isoflurane (in 02) and implanted with a 4ET radio-transmitter (Data Sciences International, DSI) using sterile surgical technique. The rat chamber was ventilated with pure O2 while the hyperbaric chamber, containing the radio-receiver (DSI), was pressurized in parallel with air to 5 atmospheres absolute (ATA). One pair of leads (positive and negative poles) was implanted in the costal diaphragm at the junction with the abdominal wall for diaphragmatic electromyogram (dEMG) signals, one pair of electrodes was inserted in the pectoral muscle to acquire electrocardiogram (ECG) data, and two pairs of wires were embedded in the skull between Bregma and Lambda, with one lead on either side of midline for each pair (EEG recordings). The EMG wires were not inserted into crural diaphragmatic muscle because of the high risk of pneumothorax due to the thinness of the muscle (419 to 630 μm). 4ET radio-transmitters also monitored core body temperature and physical activity. Rats were weighed immediately before surgery and subsequently once every 7 days, just prior to the weekly exposures to HBO2. After surgery, every animal recovered for ≧1 week. The rats were food (not water) deprived for 18 hours prior to the start of the experiment.
In each case animals were gavaged about 30 minutes prior to diving. […]

VM-M3 metastatic cancer = experiment: Survival time in VM-M3 mouse model of metastatic cancer; format: in vivo; conditions: for increase in mean survival time: Example 5, compared to controls; for % increase in survival time: Example 5, vs control (SD)
[5] = Blood ketones and glucose after oral gavage in rats; format: in vivo, rat; conditions: for duration of elevation of blood ketones: single oral/intragastric administration; for blood AcAc level / blood acetone level / effect on blood glucose / blood BHB level (words): ~10 g/kg gavage; for blood acetone level: 60 minutes; for effect on blood glucose: over 4 hrs, relative to water; for blood BHB level (words): vs control water
Experimental: Whole blood samples (10 μl) were acquired for analysis of glucose and BHB utilizing a commercially available glucose/ketone monitoring system (Nova Max® Plus) at time 0, 30, 60, 120, 180 and 240 min. In addition, heparinized blood samples (200 μl) were collected into Eppendorf tubes at time 0, 30, 60, 120, 180 and 240 min. Samples were processed for the detection and quantification of BHB, AcAc, and acetone. Briefly, samples were chilled on ice for 30 s, centrifuged in a micro-centrifuge (13,000 G) for 3-5 min and plasma (>100 μl), treated with reducing reagent of cold 0.2M sodium borodeuteride (NaBD4; Sigma, 205591, CAS 15681-89-7) dissolved in 0.1M NaOH (8.4 mg NaBD4 in 1 ml of 0.1M NaOH) and then immediately frozen on dry ice before storing at −80° C. Acetone was analyzed at the 60 minute time point, which was the predicted peak of blood AcAc levels (Desrochers et al. 1995). 300 μl of whole blood were collected in addition to the above collections, stabilized with cold 0.2M NaBD4, and then immediately frozen on dry ice. Samples were stored at −80° C. until analyzed for ketones. Internal standards of [^2H6]BHB or [^2H8]isopropanol were added to the treated plasma or blood samples (50 μl or 15 μl) and the BHB, AcAc (as M+1 of BHB) or acetone (as 2-propanol) metabolites were analyzed by gas chromatography-mass spectrometry (GC-MS) using an Agilent 5973 mass spectrometer, linked to a 6890 gas chromatograph equipped with an autosampler. Briefly, GC-MS conditions were either EI or CI mode (electron or chemical ionization mode); the samples were detected by selected ion monitoring as the BHB- and AcAc-trimethylsilyl derivatives (EI) or the derivative of acetone-pentafluorobenzoyl (CI).
KE and BD. […] Blood was collected and processed as described in the previous example.
Ketone measurements were taken at 30, 60, 120, 180 and 240 minutes. Blood plasma was treated with sodium borodeuteride (NaB2H4) to stabilize ketone concentration and then assayed by GC-MS. The rapid rise relating to blood ketones from BD-AcAc2 is due primarily from rapid desterfication in blood and tissues.

[6] = single oral administration ~10 g/kg

Molecule | tumor growth / bioluminescence (VM-M3/Fluc tumors) | whole body tumor bioluminescence (ROI), representative animal (VM-M3/Fluc tumors) | blood pH change, mild nonpathological acidosis (FIG. 25) [1] | decrease of blood pH compared to control after about 30 minutes [1] | decrease of blood pH compared to control after about one hour [1] | time after feeding to significant βHB elevation [3] [h] | ketone bodies elevated, βHB and AcAc [3] | time for which blood glucose was significantly lowered [3] [h] | increase in latency to seizure (LS) compared to control [4] | increase in mean survival time (VM-M3 metastatic cancer) | % increase in survival time (VM-M3 metastatic cancer) | blood BHB [5, 6] [mM] | blood AcAc level [5] | blood acetone level [5] | effect on blood glucose [5] | blood BHB level (words) [5] | effect on latency to seizure / CNS-OT (words) [4] | also measured
CC(=O)CC(=O)OCCC(C)OC(=O)CC(C)=O (stereo not drawn) [KE, R,S-1,3-butanediol acetoacetate diester] | drastically reduced tumor progression | 1.536×10^6 | from 7.45 to 7.35 | 0.05 | 0.1 | 4 | elevated both βHB and AcAc | 4 | 574±115% and 574±116% | approximately 22 days | 69% and 69.2* % | > 3 | increased significantly more; also recorded: significant increase in BHB and AcAc at 30 minutes | significantly higher at 60 minutes | no significant effect on blood glucose levels | significant increase in BHB and AcAc at 30 minutes |  | increase in blood pO2 levels ([1]; sustained): approximately 30%; blood glucose vs controls [2]: lower blood glucose; blood ketones (βHB) vs controls [2]: elevated blood βHB; effect on latency to seizure / CNS-OT (words) ([4]; listed as 1,3-BD AcAc diester): delays CNS-OT; effect on latency to seizure / CNS-OT (words) ([4]; listed as BD-AcAc2): most effective KE against CNS-OT; also recorded: significantly increased the latency time to seizure; increase in latency to seizure (LS) compared to control ([4]; listed as BD-AcAc2): > 570%; increase in latency to seizure (LS) compared to control ([4]; listed as dKE): 570%; Mean survival (VM-M3 metastatic cancer; Example 5, supplemental ketones, control (SD) 31.2): 52.8 days; total ketones about 30 minutes after gavage ([5]; 10 g/kg gavage): > 5 mM; blood AcAc [5, 6]: > 3 mM; sustained elevation of total ketones ([5]; single oral administration, for over 4 hrs): > 6 mM; duration of elevation of blood ketones [5]: 4 h and > 4 h; duration of elevation of blood ketones ([5]; listed as BD-AcAc2): over 4 h; blood acetone ([5]; within about 60 minutes after single oral administration): ~0.7 mM; effect on blood glucose ([5]; listed as BD-AcAc2): does not elevate blood glucose
(R)-1,3-butanediol ester [BHB ester, reference compound] |  |  |  |  |  |  |  |  |  |  |  |  |  |  |  | elevated blood levels of B-hydroxybutyrate |  | effect on latency to seizure / CNS-OT (words) ([4]; listed as 1,3-BD BHB ester): lack of efficacy; effect on latency to seizure / CNS-OT (words) ([4]; listed as B-hydroxybutyrate ester): no effect on seizure latency
C[C@H](O)CCO [BD, R,S-1,3-butanediol, reference compound] | profound effect | 1.739×10^6 | from 7.45 to 7.35 | 0.05 | 0.1 | 1 | only elevated βHB | 8 |  | approximately 16 days | 51% | > 5 | only modest elevation in AcAc relative to KE; also recorded: low or undetectable | low or undetectable | no significant effect on blood glucose levels | significant increase in BHB | did not delay CNS-OT; also recorded: did not increase LS | effect on latency to seizure / CNS-OT (words) ([4]; listed as 1,3-BD): lack of efficacy; effect on latency to seizure / CNS-OT (words) ([4]; listed as 1,3-butanediol): no effect on seizure latency; blood BHB level (words) ([5]; listed as 1,3-butanediol): elevated blood levels of B-hydroxybutyrate
CC(=O)CC(=O)OCCC(C)O (stereo not drawn) [BD-AcAc, R,S-1,3-butanediol acetoacetate monoester] |  |  |  |  |  |  |  |  | 285% |  |  |  |  |  |  |  | significantly increased the latency time to seizure | latency time to seizure, individual rat (EEG) ([4]; 5 ATA O2 (60 PSI), same rat 8 minutes without ketone ester): 110 min; effect on latency to seizure / CNS-OT (words) ([4]; listed as 1,3-BD AcAc monoester): delays CNS-OT
